Converted amounts (≈) assume the structure as drawn.
Legend:
Type in all cases: functional
[1] = system: Tetranychus urticae; test: Acaricidal activity against Tetranychus urticae (two-spotted spider mite) infested kidney bean leaf assessed as mortality at 200 ppm after 5 days; details: 120 h
[2] = system: Tetranychus urticae; test: Acaricidal activity against Tetranychus urticae (two-spotted spider mite) infested kidney bean leaf assessed as mortality at 50 ppm after 5 days; details: 120 h
[3] = system: Tetranychus urticae; test: Acaricidal activity against Tetranychus urticae (two-spotted spider mite) infested kidney bean leaf assessed as mortality at 3.1 ppm after 5 days; details: 120 h
[4] = system: Tetranychus urticae; test: Acaricidal activity against Tetranychus urticae (two-spotted spider mite) infested kidney bean leaf assessed as mortality at 12.5 ppm after 5 days; details: 120 h
[5] = system: Panonychus citri; test: Ovicidal activity against Panonychus citri eggs laid on compound-treated mandarian orange measured after 7 days; details: 168 h
[6] = system: Tetranychus urticae; test: Ovicidal activity against Tetranychus urticae (two-spotted spider mite) eggs laid on compound-treated kidney bean leaf disk measured after 7 days; details: foliar, 168 h
[7] = system: Tetranychus urticae; test: Adulticidal activity against adult Tetranychus urticae (two-spotted spider mite) infested kidney bean leaf disk after 2 days; details: foliar, 48 h
[8] = system: Panonychus citri; test: Adulticidal activity against adult Panonychus citri infested mandarian orange after 2 days; details: 48 h

Structure (SMILES) | mortality at 200 ppm [1] [%] | mortality at 50 ppm [2] [%] | mortality at 3.1 ppm [3] [%] | mortality at 12.5 ppm [4] [%] | LC50 [5] [µg/mL] | LC50 [6] [µg/mL] | LC50 [7] [µg/mL] | LC50 [8] [µg/mL]
CC(C)n1nc2c(c1C(=O)NCc1ccc(C(C)(C)C)cc1)CCC2 | 0 | 0 | – | – | – | – | – | –
Cn1nc2c(c1C(=O)NCc1ccc([Si](C)(C)C)cc1)CCC2 | 3 | 3 | 1 | 3 | – | – | – | –
Cn1nc2c(c1C(=O)NCc1ccc(C(C)(C)C)cc1)CCC2 | 3 | 3 | 2 | 3 | – | – | – | –
CC(C)(C)c1ccc(CNC(=O)c2c3c(nn2C(C)(C)C)CCC3)cc1 | 0 | 0 | – | – | – | – | – | –
Cn1nc2c(c1C(=O)SCc1ccc(C(C)(C)C)cc1)CCC2 | 0 | 0 | – | – | – | – | – | –
CC1CCc2c1nn(C)c2C(=O)NCc1ccc(C(C)(C)C)cc1 (stereo unspecified) | 3 | 3 | 3 | 3 | 6.3 (≈ 19.4 µM) | 1.7 (≈ 5.22 µM) | 2.1 (≈ 6.45 µM) | 0.42 (≈ 1.29 µM)
CC(C)Cc1ccc(CNC(=O)c2c3c(nn2C)CCC3)cc1 | 1 | 0 | 0 | 0 | – | – | – | –
Cn1nc2c(c1C(=O)OCc1ccc(C(C)(C)C)cc1)CCC2 | 1 | 0 | – | – | – | – | – | –
Cn1nc2c(c1C(=O)NCc1ccccc1)CCC2 | 0 | 0 | 0 | 0 | – | – | – | –
CCCCc1ccc(CNC(=O)c2c3c(nn2C)CCC3)cc1 | 2 | 0 | 0 | 0 | – | – | – | –
CC1CC(C)c2c1nn(C)c2C(=O)NCc1ccc(C(C)(C)C)cc1 (stereo unspecified) | 1 | 0 | 0 | 0 | – | – | – | –
CN(Cc1ccc(C(C)(C)C)cc1)C(=O)c1c2c(nn1C)CCC2 | 0 | 0 | – | – | – | – | – | –
CC(C)(C)c1ccc(CNC(=O)c2[nH]nc3c2CCC3)cc1 | 0 | 0 | – | – | – | – | – | –
CCCCn1nc2c(c1C(=O)NCc1ccc(C(C)(C)C)cc1)CCC2 | 0 | 0 | – | – | – | – | – | –
Cn1nc2c(c1C(=S)NCc1ccc(C(C)(C)C)cc1)CCC2 | 0 | 0 | – | – | – | – | – | –
CCC1CCc2c1nn(C)c2C(=O)NCc1ccc(C(C)(C)C)cc1 (stereo unspecified) | 0 | 0 | 0 | 0 | – | – | – | –
CC(C)c1ccc(CNC(=O)c2c3c(nn2C)CCC3)cc1 | 3 | 2 | 0 | 1 | – | – | – | –
Cn1nc2c(c1C(=O)NCCc1ccc(C(C)(C)C)cc1)CCC2 | 0 | 0 | – | – | – | – | – | –
Cn1nc2c(c1C(=O)NCc1ccc(C(C)(C)C)cc1)CCCC2 | 2 | 1 | 0 | 0 | – | – | – | –
CCn1nc2c(c1C(=O)NCc1ccc(C(C)(C)C)cc1)CCC2 | 0 | 0 | – | – | – | – | – | –
Cc1ccc(CNC(=O)c2c3c(nn2C)CCC3)cc1 | 0 | 0 | 0 | 0 | – | – | – | –
CC1CCCc2c1nn(C)c2C(=O)NCc1ccc(C(C)(C)C)cc1 (stereo unspecified) | 0 | 0 | 0 | 0 | – | – | – | –
CC(C)(C)c1ccc(CNC(=O)c2c3c(nn2-c2ccccc2)CCC3)cc1 | 0 | 0 | – | – | – | – | – | –
Cn1nc2c(c1C(=O)NCc1ccc(CC(C)(C)C)cc1)CCC2 | 3 | 1 | 0 | 0 | – | – | – | –
CCC(C)c1ccc(CNC(=O)c2c3c(nn2C)CCC3)cc1 (stereo unspecified) | 3 | 3 | 0 | 1 | – | – | – | –
CCc1nn(C)c(C(=O)NCc2ccc(C(C)(C)C)cc2)c1Cl [TEBUFENPYRAD] | – | – | – | – | 3.9 (≈ 11.7 µM) | 0.96 (≈ 2.88 µM) | 3.7 (≈ 11.1 µM) | 0.5 (≈ 1.5 µM)

— ChEMBL document CHEMBL3046442, “Synthesis and Acaricidal Activity of Bicyclic Pyrazole-3-carboxamide Derivatives” (1992)
